Source: patent publication US20080114007A1 (priority 2006, published 2008)

biological target: CSF-1R (Homo sapiens, UniProt P07333); experiment: Peptide (non-phosphorylated) assay, fluorescence polarization competition immunoassay; type: biochemical; conditions: 0.7 nM CSF-1R, 308 μM SYEGNSYTFIDPTQ peptide, 1 mM ATP, 80 min; mean of at least three determinations; read-out: c-fms Peptide IC50
How it was run: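 Read-out is fluorescence polarization: after EDTA quench, anti-phosphotyrosine antibody plus PTK green tracer compete with the phosphorylated peptide for 30 min. The CSF-1R reaction itself ran 80 min at room temperature after ATP addition. DMSO (4%) wells served as controls, positive controls pre-treated with EDTA.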

Chain of CSF-1R (P07333 20-972): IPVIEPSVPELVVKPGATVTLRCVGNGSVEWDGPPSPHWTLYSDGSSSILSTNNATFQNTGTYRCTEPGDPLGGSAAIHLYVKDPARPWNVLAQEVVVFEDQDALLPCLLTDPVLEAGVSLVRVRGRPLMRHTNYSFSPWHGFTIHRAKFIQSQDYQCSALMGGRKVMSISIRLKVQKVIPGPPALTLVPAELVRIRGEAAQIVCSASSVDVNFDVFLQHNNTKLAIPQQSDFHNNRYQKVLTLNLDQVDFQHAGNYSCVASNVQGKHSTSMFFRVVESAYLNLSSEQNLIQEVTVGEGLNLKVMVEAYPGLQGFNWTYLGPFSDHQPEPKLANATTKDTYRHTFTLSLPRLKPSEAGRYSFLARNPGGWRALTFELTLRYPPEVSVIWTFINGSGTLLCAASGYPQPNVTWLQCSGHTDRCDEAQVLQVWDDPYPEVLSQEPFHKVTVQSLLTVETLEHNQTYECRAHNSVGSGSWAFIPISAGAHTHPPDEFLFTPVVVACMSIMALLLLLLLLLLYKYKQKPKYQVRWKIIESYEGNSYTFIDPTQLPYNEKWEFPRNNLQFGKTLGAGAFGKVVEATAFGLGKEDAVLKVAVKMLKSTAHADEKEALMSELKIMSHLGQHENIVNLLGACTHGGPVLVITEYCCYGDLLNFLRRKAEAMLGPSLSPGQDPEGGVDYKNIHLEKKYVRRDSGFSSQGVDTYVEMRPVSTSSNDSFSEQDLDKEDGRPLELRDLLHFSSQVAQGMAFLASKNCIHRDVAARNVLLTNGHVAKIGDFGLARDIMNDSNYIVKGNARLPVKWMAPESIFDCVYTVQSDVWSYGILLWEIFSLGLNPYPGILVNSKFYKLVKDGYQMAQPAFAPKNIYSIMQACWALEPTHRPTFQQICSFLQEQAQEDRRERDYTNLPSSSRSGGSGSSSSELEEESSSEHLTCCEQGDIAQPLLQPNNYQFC

Row | Structure (SMILES) | IC50 [nM]
1 | CONC(=O)c1cn(-c2ccc3c(c2)CCC3)c2nc(Nc3ccc(-n4cccn4)cc3)ncc2c1=O [Cpd 284, 8-indan-5-yl-5-oxo-2-(4-pyrazol-1-yl-phenylamino)-5,8-dihydro-pyrido[2,3-d]pyrimidine-6-carboxylic acid methoxy-amide] | 2.2
2 | CONC(=O)c1cn(-c2ccc3c(c2)CCC3)c2nc(Nc3ccc(CCN4CCCC4=O)cc3)ncc2c1=O [Cpd 134, 8-indan-5-yl-5-oxo-2-{4-[2-(2-oxo-pyrrolidin-1-yl)-ethyl]-phenylamino}-5,8-dihydro-pyrido[2,3-d]pyrimidine-6-carboxylic acid methoxy-amide] | 6.8
3 | CONC(=O)c1cn(C2CCCCC2)c2nc(Nc3ccc(C4CCNCC4)cc3)ncc2c1=O [Cpd 26, 8-cyclohexyl-5-oxo-2-(4-piperidin-4-yl-phenylamino)-5,8-dihydro-pyrido[2,3-d]pyrimidine-6-carboxylic acid methoxy-amide] | 1.4
4 | CONC(=O)c1cn(-c2ccc3c(c2)CCC3)c2nc(Nc3cccc(C(=O)NCCN4CCCC4)c3)ncc2c1=O [Cpd 192, 8-indan-5-yl-5-oxo-2-[3-(2-pyrrolidin-1-yl-ethylcarbamoyl)-phenylamino]-5,8-dihydro-pyrido[2,3-d]pyrimidine-6-carboxylic acid methoxy-amide] | 6.3
5 | CCc1ccc(-n2cc(C(=O)NOC)c(=O)c3cnc(Nc4ccc(CCN5CCN(C)CC5)cc4)nc32)cc1 [Cpd 56, 8-(4-ethyl-phenyl)-2-{4-[2-(4-methyl-piperazin-1-yl)-ethyl]-phenylamino}-5-oxo-5,8-dihydro-pyrido[2,3-d]pyrimidine-6-carboxylic acid methoxy-amide] | 1.1
6 | CONC(=O)c1cn(C2CCCC2)c2nc(Nc3ccc(CCN4CCCC4)cc3)ncc2c1=O [Cpd 39, 8-cyclopentyl-5-oxo-2-[4-(2-pyrrolidin-1-yl-ethyl)-phenylamino]-5,8-dihydro-pyrido[2,3-d]pyrimidine-6-carboxylic acid methoxy-amide] | 1.1
7 | CONC(=O)c1cn(-c2ccc(C)c(C)c2)c2nc(Nc3ccc(CCN4CCCC4=O)cc3)ncc2c1=O [Cpd 50, 8-(3,4-dimethyl-phenyl)-5-oxo-2-{4-[2-(2-oxo-pyrrolidin-1-yl)-ethyl]-phenylamino}-5,8-dihydro-pyrido[2,3-d]pyrimidine-6-carboxylic acid methoxy-amide] | 1.2
8 | CC(C)ONC(=O)c1cn(-c2ccc3c(c2)CCC3)c2nc(Nc3ccc(S(=O)(=O)N(C)C)cc3)ncc2c1=O [Cpd 137, 2-(4-dimethylsulfamoyl-phenylamino)-8-indan-5-yl-5-oxo-5,8-dihydro-pyrido[2,3-d]pyrimidine-6-carboxylic acid isopropoxy-amide] | 16
9 | CCc1ccc(-n2cc(C(=O)NOC)c(=O)c3cnc(Nc4ccc(CCN5CC(F)(F)C5)cc4)nc32)cc1 [Cpd 269, 2-{4-[2-(3,3-difluoro-azetidin-1-yl)-ethyl]-phenylamino}-8-(4-ethyl-phenyl)-5-oxo-5,8-dihydro-pyrido[2,3-d]pyrimidine-6-carboxylic acid methoxy-amide] | 1.5
10 | CCc1ccc(-n2cc(C(=O)NOC)c(=O)c3cnc(Nc4ccc(CC(=O)NNC)cc4)nc32)cc1 [Cpd 106, 8-(4-ethyl-phenyl)-2-[4-(N′-methyl-hydrazinocarbonylmethyl)-phenylamino]-5-oxo-5,8-dihydro-pyrido[2,3-d]pyrimidine-6-carboxylic acid methoxy-amide] | 1.6
11 | CCc1ccc(-n2cc(C(=O)NOC(C)C)c(=O)c3cnc(Nc4ccc(C5CCN(C(C)=O)CC5)cc4)nc32)cc1 [Cpd 59, 2-[4-(1-acetyl-piperidin-4-yl)-phenylamino]-8-(4-ethyl-phenyl)-5-oxo-5,8-dihydro-pyrido[2,3-d]pyrimidine-6-carboxylic acid isopropoxy-amide] | 4.5

Second part, the compound after the results:

Row | IC50 [nM] | Structure (SMILES)
12 | 0.4 | CCCN1CCC(c2ccc(Nc3ncc4c(=O)c(C(=O)NOC)cn(-c5ccc6c(c5)CCC6)c4n3)cc2)CC1 [Cpd 298, 8-indan-5-yl-5-oxo-2-[4-(1-propyl-piperidin-4-yl)-phenylamino]-5,8-dihydro-pyrido[2,3-d]pyrimidine-6-carboxylic acid methoxy-amide]
13 | 0.51 | CCc1ccc(-n2cc(C(=O)NOC)c(=O)c3cnc(Nc4ccc(CCN5CCCC5)cc4)nc32)cc1 [Cpd 55, 8-(4-ethyl-phenyl)-5-oxo-2-[4-(2-pyrrolidin-1-yl-ethyl)-phenylamino]-5,8-dihydro-pyrido[2,3-d]pyrimidine-6-carboxylic acid methoxy-amide]
14 | 0.32 | CONC(=O)c1cn(-c2ccc3c(c2)CCC3)c2nc(Nc3ccc(CCN4CCC[C@@H](O)C4)cc3)ncc2c1=O [Cpd 239, 2-{4-{2-[(3R)-(3-hydroxy-piperidin-1-yl)]-ethyl}-phenylamino}-8-indan-5-yl-5-oxo-5,8-dihydro-pyrido[2,3-d]pyrimidine-6-carboxylic acid methoxy-amide]
15 | 0.87 | CONC(=O)c1cn(-c2ccc3c(c2)CCC3)c2nc(Nc3ccc(CCO)cc3)ncc2c1=O [Cpd 79, 2-[4-(2-hydroxy-ethyl)-phenylamino]-8-indan-5-yl-5-oxo-5,8-dihydro-pyrido[2,3-d]pyrimidine-6-carboxylic acid methoxy-amide]
16 | 0.93 | CCN1CCCC(Oc2cccc(Nc3ncc4c(=O)c(C(=O)NOC)cn(-c5ccc6c(c5)CCC6)c4n3)c2)C1 (stereo not drawn) [Cpd 251, 2-[3-(1-ethyl-piperidin-3-yloxy)-phenylamino]-8-indan-5-yl-5-oxo-5,8-dihydro-pyrido[2,3-d]pyrimidine-6-carboxylic acid methoxy-amide]
17 | 0.5 | CCONC(=O)c1cn(-c2ccc(C)c(C)c2)c2nc(Nc3ccc(CCN4CCN(C)CC4)cc3)ncc2c1=O [Cpd 53, 8-(3,4-dimethyl-phenyl)-2-{4-[2-(4-methyl-piperazin-1-yl)-ethyl]-phenylamino}-5-oxo-5,8-dihydro-pyrido[2,3-d]pyrimidine-6-carboxylic acid ethoxy-amide]
18 | 0.56 | CCN1CC[C@H](Oc2cccc(Nc3ncc4c(=O)c(C(=O)NOC)cn(-c5ccc6c(c5)CCC6)c4n3)c2)C1 [Cpd 263, 2-{3-[(3S)-(1-ethyl-pyrrolidin-3-yloxy)]-phenylamino}-8-indan-5-yl-5-oxo-5,8-dihydro-pyrido[2,3-d]pyrimidine-6-carboxylic acid methoxy-amide]
19 | 0.8 | CONC(=O)c1cn(-c2ccc(C)c(C)c2)c2nc(Nc3ccc(CCN4CCN(C)CC4)cc3)ncc2c1=O [Cpd 52, 8-(3,4-dimethyl-phenyl)-2-{4-[2-(4-methyl-piperazin-1-yl)-ethyl]-phenylamino}-5-oxo-5,8-dihydro-pyrido[2,3-d]pyrimidine-6-carboxylic acid methoxy-amide]
20 | 0.62 | CCc1ccc(-n2cc(C(=O)NOC)c(=O)c3cnc(Nc4ccc(NCCS(C)(=O)=O)cc4)nc32)cc1 [Cpd 217, 8-(4-ethyl-phenyl)-2-[4-(2-methanesulfonyl-ethylamino)-phenylamino]-5-oxo-5,8-dihydro-pyrido[2,3-d]pyrimidine-6-carboxylic acid methoxy-amide]
21 | 0.7 | CCc1ccc(-n2cc(C(=O)NOC(C)C)c(=O)c3cnc(Nc4ccc(C5CCN(CC)CC5)cc4)nc32)cc1 [Cpd 182, 8-(4-ethyl-phenyl)-2-[4-(1-ethyl-piperidin-4-yl)-phenylamino]-5-oxo-5,8-dihydro-pyrido[2,3-d]pyrimidine-6-carboxylic acid isopropoxy-amide]
22 | 0.75 | CONC(=O)c1cn(-c2ccc3c(c2)CCC3)c2nc(Nc3ccc(CCN4CCN(C(=O)OC)CC4)cc3)ncc2c1=O [Cpd 150, 4-{2-[4-(8-indan-5-yl-6-methoxycarbamoyl-5-oxo-5,8-dihydro-pyrido[2,3-d]pyrimidin-2-ylamino)-phenyl]-ethyl}-piperazine-1-carboxylic acid methyl ester]
23 | 0.64 | CCN1CCCCC1c1ccc(Nc2ncc3c(=O)c(C(=O)NOC)cn(-c4ccc5c(c4)CCC5)c3n2)cc1 (stereo not drawn) [Cpd 244, 2-[4-(1-ethyl-piperidin-2-yl)-phenylamino]-8-indan-5-yl-5-oxo-5,8-dihydro-pyrido[2,3-d]pyrimidine-6-carboxylic acid methoxy-amide]
24 | 0.8 | CCc1ccc(-n2cc(C(=O)NOC)c(=O)c3cnc(Nc4ccc(O[C@@H]5O[C@H](CO)[C@@H](O)[C@H](O)[C@@H]5O)cc4)nc32)cc1 [Cpd 296, 8-(4-ethyl-phenyl)-5-oxo-2-{4-[(2S,3S,4S,5S,6R)(3,4,5-trihydroxy-6-hydroxymethyl-tetrahydro-pyran-2-yloxy)]-phenylamino}-5,8-dihydro-pyrido[2,3-d]pyrimidine-6-carboxylic acid methoxy-amide]
25 | 0.62 | CONC(=O)c1cn(-c2ccc3c(c2)CCC3)c2nc(Nc3ccc(CCN4CC(F)C4)cc3)ncc2c1=O [Cpd 266, 2-{4-[2-(3-fluoro-azetidin-1-yl)-ethyl]-phenylamino}-8-indan-5-yl-5-oxo-5,8-dihydro-pyrido[2,3-d]pyrimidine-6-carboxylic acid methoxy-amide]
26 | 0.56 | CONC(=O)c1cn(-c2ccc3c(c2)CCC3)c2nc(Nc3cccc(N4CCNCC4)c3)ncc2c1=O [Cpd 2, 8-indan-5-yl-5-oxo-2-(3-piperazin-1-yl-phenylamino)-5,8-dihydro-pyrido[2,3-d]pyrimidine-6-carboxylic acid methoxy-amide]

same assay, conditions: c-fms Peptide IC50, 0.7 nM CSF-1R, 308 μM SYEGNSYTFIDPTQ peptide, 1 mM ATP, 80 min; mean of at least three determinations

Row | IC50 [nM] | Structure (SMILES)
27 | 0.4 | CONC(=O)c1cn(C2CCC(C)(C)CC2)c2nc(Nc3ccc(C4CCN(C)CC4)cc3)ncc2c1=O [Cpd 209, 8-(4,4-dimethyl-cyclohexyl)-2-[4-(1-methyl-piperidin-4-yl)-phenylamino]-5-oxo-5,8-dihydro-pyrido[2,3-d]pyrimidine-6-carboxylic acid methoxy-amide]
